Measured values: patent publication US20120029187A1, “HALOALKYLSULFONANILIDE DERIVATIVE” (Nissan Chemical Industries, Ltd., priority 2009, published 2012)

How the values were obtained:
Type in all cases: in vivo
[1] = tested on: barnyardgrass; assay: Test Example 1: herbicidal effects in preemergence treatment under submerged conditions; settings: dose 2.52 g/a
Description: (§1) Test on the Herbicidal Effects in Preemergence Treatment on Weeds Under Submerged Conditions
(§2) Alluvial soil was put in 1/30000-are styrol cups and admixed with water so that it was submerged at a depth of 4 cm. In each cup, seeds of barnyardgrass, bulrush and ducksalad were sown together, and rice seedlings at the 2.5-leaf stage were transplanted. On the same day as the seeding, emulsifiable concentrates containing compounds of the present invention formulated in accordance with Formulation Example 2 were applied to the water surfaces at predetermined doses after diluted with water. The cups were placed in a greenhouse at 25 to 30° C. to grow the plants. Three weeks after the application, the herbicidal effects against various plants were determined on the following evaluation scale.
(§3) 5 mortality of 90% or above (nearly complete death)
(§4) 4 mortality of at least 70% and less than 90%
(§5) 3 mortality of at least 40% and less than 70%
(§6) 2 mortality of at least 20% and less than 40%
(§7) 1 mortality of at least 5% and less than 20%
(§8) 0 mortality of less than 5% (almost ineffective)
(§9) A: barnyardgrass, B: bulrush, C: ducksalad, D: large crabgrass, E: giant foxtail, F: wild oat, G: water foxtail, H: Italian ryegrass, I: velvetleaf, J: common ragweed, K: redroot pigweed, L: common lambsquater, M: posumbu knotweed, N: common chickweed, O: beadstraw, a: transplanted rice, b: corn, c: soybean, d: direct-seeded rice, e: wheat, f: sugar beet.
(§10) The doses (g/a) represents the amounts in g per 1 are (a) applied after adjustment of concentration adjustment.

[2] = tested on: bulrush; assay: as above; settings: dose 2.52 g/a
Description: as §1, §2, §3, §4, §5, §6, §7, §8, §9, §10

[3] = tested on: ducksalad; assay: as above; settings: dose 2.52 g/a
Description: as §1, §2, §3, §4, §5, §6, §7, §8, §9, §10

[4] = tested on: transplanted rice; assay: Test Example 1: preemergence treatment under submerged conditions, effect on crop; settings: dose 2.52 g/a
Description: as §1, §2, §3, §4, §5, §6, §7, §8, §9, §10

[5] = tested on: barnyardgrass; assay: Test Example 2: herbicidal effects during the vegetation period under submerged conditions; settings: treatment during the vegetation period under submerged conditions; dose 2.52 g/a
Experimental: (§11) Test on the Herbicidal Effects on Weeds During the Vegetation Period Under Submerged Conditions
(§12) Alluvial soil was put in 1/30000-are styrol cups and admixed with water so that it was submerged at a depth of 4 cm. In each cup, seeds of barnyardgrass, bulrush and ducksalad were sown together, and the cups were placed in a greenhouse at 25 to 30° C. to grow the plants. When the barnyardgrass, bulrush and ducksalad reached the 1- or 2-leaf stage, emulsifiable concentrates containing compounds of the present invention formulated in accordance with Formulation Example 2 were applied to the water surfaces at predetermined doses after diluted with water. Three weeks after the application, the herbicidal effects against various plants were determined on the same evaluation scale as in Test Example 1.
as §9, §10

[6] = tested on: bulrush; assay: as above; settings: treatment during the vegetation period under submerged conditions; dose 2.52 g/a
Experimental: as §11, §12, §9, §10

[7] = tested on: ducksalad; assay: as above; settings: treatment during the vegetation period under submerged conditions; dose 2.52 g/a
Experimental: as §11, §12, §9, §10

[8] = tested on: Italian ryegrass; assay: Test Example 3: herbicidal effects in soil treatment; settings: dose 3.2 g/a
Description: (§13) Test on the Herbicidal Effects in Soil Treatment
(§14) Sterilized diluvial soil was put in plastic boxes with a length of 21 cm, a width of 13 cm and a depth of 7 cm, and seeds of barnyardgrass, large crabgrass, giant foxtail, wild oat, blackgrass, velvetleaf, common ragweed, redroot pigweed, common lambsquater, posumbu knotweed, common chickweed corn, soybean, rice, wheat and sugar beet were sown in spots and covered with an about 1.5 cm-thick soil layer. Emulsifiable concentrates containing compounds of the present invention formulated in accordance with Formulation Example 2 were uniformly applied to the soil surfaces at predetermined doses through a small sprayer after dilute with water. Three weeks after the application, the herbicidal effects against various plants were determined on the same evaluation scale as in Test Example 1.
as §9, §10

[9] = tested on: barnyardgrass; assay: as above; settings: dose 3.2 g/a
Description: as §13, §14, §9, §10

[10] = tested on: common chickweed; assay: as above; settings: dose 3.2 g/a
Description: as §13, §14, §9, §10

[11] = tested on: common lambsquater; assay: as above; settings: dose 3.2 g/a
Description: as §13, §14, §9, §10

[12] = tested on: common ragweed; assay: as above; settings: dose 3.2 g/a
Description: as §13, §14, §9, §10

[13] = tested on: giant foxtail; assay: as above; settings: dose 3.2 g/a
Description: as §13, §14, §9, §10

[14] = tested on: large crabgrass; assay: as above; settings: dose 3.2 g/a
Description: as §13, §14, §9, §10

[15] = tested on: redroot pigweed; assay: as above; settings: dose 3.2 g/a
Description: as §13, §14, §9, §10

[16] = tested on: velvetleaf; assay: as above; settings: dose 3.2 g/a
Description: as §13, §14, §9, §10

[17] = tested on: water foxtail; assay: as above; settings: dose 3.2 g/a
Description: as §13, §14, §9, §10

[18] = tested on: Italian ryegrass; assay: Test Example 4: herbicidal effect in foliage treatment; settings: dose 3.2 g/a, three weeks after application
Description: (§15) Test on the Herbicidal Effect in Foliage Treatment
as §14, with “chickweed,” for “chickweed”, “The boxes were placed in a greenhouse at 25 to 30° C. to grow the plants. After 14 days, emulsifiable” for “Emulsifiable”, “foliage” for “soil surfaces”, “diluted” for “dilute”
as §9, §10

[19] = tested on: barnyardgrass; assay: as above; settings: dose 3.2 g/a, three weeks after application
Description: as §15
as §14, with “chickweed,” for “chickweed”, “The boxes were placed in a greenhouse at 25 to 30° C. to grow the plants. After 14 days, emulsifiable” for “Emulsifiable”, “foliage” for “soil surfaces”, “diluted” for “dilute”
as §9, §10

[20] = tested on: beadstraw; assay: as above; settings: dose 3.2 g/a, three weeks after application
Description: as §15
as §14, with “chickweed,” for “chickweed”, “The boxes were placed in a greenhouse at 25 to 30° C. to grow the plants. After 14 days, emulsifiable” for “Emulsifiable”, “foliage” for “soil surfaces”, “diluted” for “dilute”
as §9, §10

[21] = tested on: common chickweed; assay: as above; settings: dose 3.2 g/a, three weeks after application
Description: as §15
as §14, with “chickweed,” for “chickweed”, “The boxes were placed in a greenhouse at 25 to 30° C. to grow the plants. After 14 days, emulsifiable” for “Emulsifiable”, “foliage” for “soil surfaces”, “diluted” for “dilute”
as §9, §10

[22] = tested on: common lambsquater; assay: as above; settings: dose 3.2 g/a, three weeks after application
Description: as §15
as §14, with “chickweed,” for “chickweed”, “The boxes were placed in a greenhouse at 25 to 30° C. to grow the plants. After 14 days, emulsifiable” for “Emulsifiable”, “foliage” for “soil surfaces”, “diluted” for “dilute”
as §9, §10

[23] = tested on: common ragweed; assay: as above; settings: dose 3.2 g/a, three weeks after application
Description: as §15
as §14, with “chickweed,” for “chickweed”, “The boxes were placed in a greenhouse at 25 to 30° C. to grow the plants. After 14 days, emulsifiable” for “Emulsifiable”, “foliage” for “soil surfaces”, “diluted” for “dilute”
as §9, §10

[24] = tested on: giant foxtail; assay: as above; settings: dose 3.2 g/a, three weeks after application
Description: as §15
as §14, with “chickweed,” for “chickweed”, “The boxes were placed in a greenhouse at 25 to 30° C. to grow the plants. After 14 days, emulsifiable” for “Emulsifiable”, “foliage” for “soil surfaces”, “diluted” for “dilute”
as §9, §10

[25] = tested on: large crabgrass; assay: as above; settings: dose 3.2 g/a, three weeks after application
Description: as §15
as §14, with “chickweed,” for “chickweed”, “The boxes were placed in a greenhouse at 25 to 30° C. to grow the plants. After 14 days, emulsifiable” for “Emulsifiable”, “foliage” for “soil surfaces”, “diluted” for “dilute”
as §9, §10

[26] = tested on: posumbu knotweed; assay: as above; settings: dose 3.2 g/a, three weeks after application
Description: as §15
as §14, with “chickweed,” for “chickweed”, “The boxes were placed in a greenhouse at 25 to 30° C. to grow the plants. After 14 days, emulsifiable” for “Emulsifiable”, “foliage” for “soil surfaces”, “diluted” for “dilute”
as §9, §10

[27] = tested on: redroot pigweed; assay: as above; settings: dose 3.2 g/a, three weeks after application
Description: as §15
as §14, with “chickweed,” for “chickweed”, “The boxes were placed in a greenhouse at 25 to 30° C. to grow the plants. After 14 days, emulsifiable” for “Emulsifiable”, “foliage” for “soil surfaces”, “diluted” for “dilute”
as §9, §10

[28] = tested on: velvetleaf; assay: as above; settings: dose 3.2 g/a, three weeks after application
Description: as §15
as §14, with “chickweed,” for “chickweed”, “The boxes were placed in a greenhouse at 25 to 30° C. to grow the plants. After 14 days, emulsifiable” for “Emulsifiable”, “foliage” for “soil surfaces”, “diluted” for “dilute”
as §9, §10

[29] = tested on: water foxtail; assay: as above; settings: dose 3.2 g/a, three weeks after application
Description: as §15
as §14, with “chickweed,” for “chickweed”, “The boxes were placed in a greenhouse at 25 to 30° C. to grow the plants. After 14 days, emulsifiable” for “Emulsifiable”, “foliage” for “soil surfaces”, “diluted” for “dilute”
as §9, §10

CCOC(=O)N(c1ccccc1CN1COC2(CCCC2)CC1=O)S(=O)(=O)C(F)(F)F [II-66]
A: barnyardgrass, herbicidal effect (evaluation scale 0-5) [1]: 5 (mortality of 90% or above (nearly complete death)) | B: bulrush, herbicidal effect (evaluation scale 0-5) [2]: 5 (mortality of 90% or above (nearly complete death)) | C: ducksalad, herbicidal effect (evaluation scale 0-5) [3]: 5 (mortality of 90% or above (nearly complete death)) | a: transplanted rice, effect on crop (evaluation scale 0-5) [4]: 0 (mortality of less than 5% (almost ineffective)) | A: barnyardgrass, herbicidal effect (evaluation scale 0-5) [5]: 5 (mortality of 90% or above (nearly complete death)) | B: bulrush, herbicidal effect (evaluation scale 0-5) [6]: 5 (mortality of 90% or above (nearly complete death)) | C: ducksalad, herbicidal effect (evaluation scale 0-5) [7]: 5 (mortality of 90% or above (nearly complete death)) | H: Italian ryegrass, herbicidal effect (evaluation scale 0-5) [8]: 5 (mortality of 90% or above (nearly complete death)) | A: barnyardgrass, herbicidal effect (evaluation scale 0-5) [9]: 5 (mortality of 90% or above (nearly complete death)) | N: common chickweed, herbicidal effect (evaluation scale 0-5) [10]: 5 (mortality of 90% or above (nearly complete death)) | L: common lambsquater, herbicidal effect (evaluation scale 0-5) [11]: 0 (mortality of less than 5% (almost ineffective)) | J: common ragweed, herbicidal effect (evaluation scale 0-5) [12]: 3 (mortality of at least 40% and less than 70%) | E: giant foxtail, herbicidal effect (evaluation scale 0-5) [13]: 5 (mortality of 90% or above (nearly complete death)) | D: large crabgrass, herbicidal effect (evaluation scale 0-5) [14]: 5 (mortality of 90% or above (nearly complete death)) | K: redroot pigweed, herbicidal effect (evaluation scale 0-5) [15]: 2 (mortality of at least 20% and less than 40%) | I: velvetleaf, herbicidal effect (evaluation scale 0-5) [16]: 4 (mortality of at least 70% and less than 90%) | G: water foxtail, herbicidal effect (evaluation scale 0-5) [17]: 5 (mortality of 90% or above (nearly complete death)) | H: Italian ryegrass, herbicidal effect [18]: 3 (mortality of at least 40% and less than 70%) | A: barnyardgrass, herbicidal effect [19]: 5 (mortality of 90% or above (nearly complete death)) | O: beadstraw, herbicidal effect [20]: 0 (mortality of less than 5% (almost ineffective)) | N: common chickweed, herbicidal effect [21]: 4 (mortality of at least 70% and less than 90%) | L: common lambsquater, herbicidal effect [22]: 3 (mortality of at least 40% and less than 70%) | J: common ragweed, herbicidal effect [23]: 3 (mortality of at least 40% and less than 70%) | E: giant foxtail, herbicidal effect [24]: 4 (mortality of at least 70% and less than 90%) | D: large crabgrass, herbicidal effect [25]: 3 (mortality of at least 40% and less than 70%) | M: posumbu knotweed, herbicidal effect [26]: 4 (mortality of at least 70% and less than 90%) | K: redroot pigweed, herbicidal effect [27]: 0 (mortality of less than 5% (almost ineffective)) | I: velvetleaf, herbicidal effect [28]: 3 (mortality of at least 40% and less than 70%) | G: water foxtail, herbicidal effect [29]: 5 (mortality of 90% or above (nearly complete death))
